One test relates to NF-AT. As to the kind of experiment: NF-AT Inhibition Assay Directed β-Galactosidase Expression in FGL-5 cells. Particulars: 50% inhibition of NF-AT directed β-galactosidase activity in FGL-5 cells stimulated with phorbol dibutyrate and ionomycin; TABLE 3. It is filed as cell-based. The gist of the method: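 FGL-5 Jurkat cells (3 million cells/ml) carry NF-AT-site-driven lacZ. They were stimulated with phorbol dibutyrate plus ionomycin and incubated with compound 16-18 h at 37 °C, in duplicate wells with matched ethanol or DMSO vehicle controls. β-Galactosidase was read as fluorescence from 4-methylumbelliferyl-β-D-galactoside cleavage, giving percent inhibition.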

A further test concerns human T-cells. The experiment in a line: Suppression of Human T-Cell Proliferation Assay (PHA-stimulated, [3H]-thymidine incorporation). It is filed as cell-based. The note with it: concentration inhibiting [3H]-thymidine incorporation of PHA-stimulated T-cells by 50%, 72 hours; TABLE 2; read-out: IC50. The gist of the method:
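Read-out is scintillation counting of [3H]-thymidine pulsed for the last 6 h of a 72 h, 37° C culture. Human T-cells, isolated from LeukoPaks by Lymphoprep and sheep-erythrocyte rosetting, were PHA-M activated (40 μg/ml stock) with compound dilutions added in duplicate wells.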
For orientation: Incorporation of labelled thymidine or its analogues reports DNA synthesis.

A further test has as its target FKBP (Homo sapiens, UniProt P62942). As to the kind of experiment: PPIase Inhibition Assay. The test is classed as biochemical. The note with it: concentration of inhibitor required for 50% inhibition of enzyme activity; FKBP, substrate Succinyl-Ala-Phe-Pro-Phe-para-nitroanilide; TABLE I. The gist of the method: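 Rates from p-nitroaniline release at 390 nm over 90 sec, fitted first-order, were converted to % activity remaining relative to uncatalyzed and uninhibited rates, with IC50 from linear regression of V-/V+ against inhibitor level. FKBP acted on Suc-Ala-Phe-Pro-Phe-pNA with excess chymotrypsin, HEPES pH 7.8, cold buffer.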

SMILES strings stand for the structures. Structures can show the parent of a compound that is named as a salt.

Chain of FKBP (P62942 whole entry): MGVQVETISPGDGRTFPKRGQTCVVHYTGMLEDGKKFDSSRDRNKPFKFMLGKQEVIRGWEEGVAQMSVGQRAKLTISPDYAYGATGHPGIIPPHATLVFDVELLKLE

By IC50 is commonly meant the point on the concentration scale where inhibition reaches its midpoint. As for `CC[C@H](C)[C@H](NC(=O)[C@@H]1CCCN1CC(=O)C1(c2ccc(C)cc2)CCCCC1)C(=O)NCc1ccccc1` [Example 113, L-Isoleucine, N-[1-(2-(1-(4-Methylphenyl)cyclohexyl)-2-Oxoethyl)-L-Prolyl] Benzylamide], the values for the 50% inhibitory concentration (IC50) with NF-AT, with human T-cells and against FKBP were over 15 µM, 8 µM and under 5 µM, respectively.
For the compound `CC[C@H](C)[C@H](NC(=O)[C@@H]1CCCN1CC(=O)C1(c2ccc(Cl)cc2)CCCCC1)C(=O)NCc1ccccc1` [Example 114, L-Isoleucine, N-[1-(2-(1-(4-Chlorophenyl)cyclohexyl)-2-Oxoethyl)-L-Prolyl] Benzylamide], the IC50 in the test on NF-AT is 10 µM; with human T-cells, 7 µM; against FKBP, under 5 µM.
The corresponding values for `CC[C@H](C)[C@H](NC(=O)[C@@H]1CCCN1CC(=O)c1ccc(OC)c(OC)c1OC)C(=O)NCc1ccccc1` [Example 115, L-Isoleucine, N-[1-(2-(2,3,4-Trimethoxyphenyl)-2-Oxoethyl)-L-Prolyl] Benzylamide] are over 15 µM, 7 µM and over 5 µM.
The corresponding values for `CC[C@H](C)[C@H](NC(=O)[C@@H]1CCCN1CC(=O)C1(c2ccccc2)CCCCC1)C(=O)NCc1ccccc1` [Example 116, L-Isoleucine, N-[1-(2-(1-Phenylcyclohexyl)-2-Oxoethyl)-L-Prolyl] Benzylamide] are 14 µM, 6 µM and under 5 µM.
As to `CC[C@H](C)[C@H](NC(=O)[C@@H]1CCCN1CC(=O)c1cc(OC)c(OC)cc1OC)C(=O)NCc1ccccc1` [Example 117, L-Isoleucine, N-[1-(2-(2,4,5-Trimethoxyphenyl)-2-Oxoethyl)-L-Prolyl] Benzylamide], the IC50 is over 15 µM with NF-AT, over 15 µM with human T-cells and under 5 µM against FKBP.
`COc1cc(C(=O)CN2CCC[C@H]2C(=O)NCc2ccccc2)cc(OC)c1OC` [Example 120, L-Proline, 1-[2-(3,4,5-Trimethoxyphenyl)-2-Oxoethyl] Benzylamide Hydrochloride]: the figures for the IC50 with NF-AT, in the test with human T-cells and against FKBP were over 15 µM, 7 µM and over 5 µM, respectively.
The corresponding values for `COc1cc(C(=O)CN2CCC[C@H]2C(=O)NCCc2ccccc2)cc(OC)c1OC` [Example 121, L-Proline, 1-[2-(3,4,5-Trimethoxyphenyl)-2-Oxoethyl] 2-Phenethylamide Hydrochloride] are over 15 µM, 7 µM and over 5 µM.
For `COc1cc(C(=O)CN2CCC[C@H]2C(=O)NCCCc2ccccc2)cc(OC)c1OC` [Example 122, L-Proline, 1-[2-(3,4,5-Trimethoxyphenyl)-2-Oxoethyl] 3-Phenylpropylamide Hydrochloride], the figures for the IC50 in the test with NF-AT, in the test with human T-cells and at FKBP were over 15 µM, 8 µM and over 5 µM, respectively.
Regarding `COc1cc(C(=O)CN2CCC[C@H]2C(=O)NCCCCc2ccccc2)cc(OC)c1OC` [Example 123, L-Proline, 1-[2-(3,4,5-Trimethoxyphenyl)-2-Oxoethyl] 4-Phenylbutylamide Hydrochloride], the 50% inhibitory concentration (IC50) in the test with NF-AT is over 15 µM; with human T-cells, 10 µM; against FKBP, over 5 µM.
On to `COc1cc(C(=O)CN2CCC[C@H]2C(=O)NCCc2ccccn2)cc(OC)c1OC` [Example 124, L-Proline, 1-[2-(3,4,5-Trimethoxyphenyl)-2-Oxoethyl] 2-(Pyrid-2-yl)ethylamide Dihydrochloride], for which the IC50 in the test on NF-AT is over 15 µM; in the test with human T-cells it was over 15 µM; against FKBP it was over 5 µM.
Regarding `COc1cc(C(=O)CN2CCC[C@H]2C(=O)NCCc2ccc(N)cc2)cc(OC)c1OC` [Example 125, L-Proline, 1-[2-(3,4,5-Trimethoxyphenyl)-2-Oxoethyl] 2-(4-aminophenyl)ethylamide Dihydrochloride], the IC50 with NF-AT was over 15 µM; with human T-cells it was over 15 µM; against FKBP, over 5 µM.
As for `C=CCOC(=O)Nc1ccc(CCCOC(=O)[C@@H]2CCCN2CC(=O)c2cc(OC)c(OC)c(OC)c2)cc1` [Example 126, L-Proline, 1-[2-(3,4,5-Trimethoxyphenyl)-2-Oxoethyl] 3-(4-[N-Carboallyloxy]aminophenyl)propyl Ester Hydrochloride], the IC50 in the test with NF-AT was over 15 µM; with human T-cells it was 10 µM; at FKBP, over 5 µM.
The corresponding values for `COc1cc(C(=O)CN2CCC[C@H]2C(=O)NCC(=O)c2ccccc2)cc(OC)c1OC` [Example 127, L-Proline, 1-[2-(3,4,5-Trimethoxyphenyl)-2-Oxoethyl] 2-Phenyl-2-oxoethylamide] are over 15 µM, over 15 µM and over 5 µM.
On to `COc1cc(C(=O)CN2CCC[C@H]2C(=O)NCC2CCCO2)cc(OC)c1OC` (stereo partly drawn) [Example 128, L-Proline, 1-[2-(3,4,5-Trimethoxyphenyl)-2-Oxoethyl] Tetrahydrofurfurylamide], for which the results for the IC50 with NF-AT, in the test with human T-cells and at FKBP were over 15 µM, 4 µM and over 5 µM, respectively.
As for `COc1cc(C(=O)CN2CCC[C@H]2C(=O)NCc2cccc3ccccc23)cc(OC)c1OC` [Example 129, L-Proline, 1-[2-(3,4,5-Trimethoxyphenyl)-2-Oxoethyl] Naphthalen-1-ylmethylamide], the results for the IC50 in the test on NF-AT, with human T-cells and on FKBP were over 15 µM, 10 µM and over 5 µM, respectively.
Turning to `COc1cc(C(=O)CN2CCC[C@H]2C(=O)NCCc2ccc(S(N)(=O)=O)cc2)cc(OC)c1OC` [Example 130, L-Proline, 1-[2-(3,4,5-Trimethoxyphenyl)-2-Oxoethyl] 2-(4-Sulfamoylphenyl)ethylamide], the 50% inhibitory concentration (IC50) in the test with NF-AT was over 15 µM; with human T-cells it was 4 µM; against FKBP it was over 5 µM.
The corresponding values for `COc1cc(C(=O)CN2CCC[C@H]2C(=O)N2CCC(c3ccccc3)CC2)cc(OC)c1OC` [Example 131, L-Proline, 1-[2-(3,4,5-Trimethoxyphenyl)-2-Oxoethyl] 4-Phenylpiperldenylamide] are over 33 µM, 22 µM and over 5 µM.
`COc1ccc(CNC(=O)[C@@H]2CCCN2CC(=O)c2cc(OC)c(OC)c(OC)c2)cc1` [Example 132, L-Proline, 1-[2-(3,4,5-Trimethoxyphenyl)-2-Oxoethyl] 4-Methoxybenzamide Hydrochloride]: the IC50 with NF-AT was over 33 µM; in the test on human T-cells, 24 µM; on FKBP, over 5 µM.
The corresponding values for `COc1cccc(CNC(=O)[C@@H]2CCCN2CC(=O)c2cc(OC)c(OC)c(OC)c2)c1` [Example 133, L-Proline, 1-[2-(3,4,5-Trimethoxyphenyl)-2-Oxoethyl] 3-Methoxybenzamide Hydrochloride] are over 33 µM, 22 µM and over 5 µM.
Turning to `COc1ccccc1CNC(=O)[C@@H]1CCCN1CC(=O)c1cc(OC)c(OC)c(OC)c1` [Example 134, L-Proline, 1-[2-(3,4,5-Trimethoxyphenyl)-2-Oxoethyl] 2-Methoxybenzamide Hydrochloride], the IC50 is over 33 µM in the test with NF-AT, 19 µM with human T-cells and over 5 µM on FKBP.
The corresponding values for `COc1cc(C(=O)CN2CCC[C@H]2C(=O)N(C)CCc2ccccc2)cc(OC)c1OC` [Example 135, L-Proline, 1-[2-(3,4,5-Trimethoxyphenyl)-2-Oxoethyl] N-MethylphenethylamideHydrochloride] are over 33 µM, 14 µM and over 5 µM.
The corresponding values for `COc1cc(C(=O)CN2CCC[C@H]2C(=O)N[C@@H](C)c2ccccc2)cc(OC)c1OC` [Example 136, L-Proline, 1-[2-(3,4,5-Trimethoxyphenyl)-2-Oxoethyl] (S)-α-methylbenzylamide Hydrochloride] are over 33 µM, 7 µM and over 5 µM.
The corresponding values for `COc1cc(C(=O)CN2CCC[C@H]2C(=O)N[C@H](C)c2ccccc2)cc(OC)c1OC` [Example 137, L-Proline, 1-[2-(3,4,5-Trimethoxyphenyl)-2-Oxoethyl] (R)-α-methylbenzylamide Hydrochloride] are over 33 µM, 16 µM and over 5 µM.
As for `COc1cc(C(=O)CN2CCC[C@H]2C(=O)NC(C)CCc2ccccc2)cc(OC)c1OC` (stereo partly drawn) [Example 138, L-Proline, 1-[2-(3,4,5-Trimethoxyphenyl)-2-Oxoethyl] 1-methyl-3-phenylpropylamide Hydrochloride], the 50% inhibitory concentration (IC50) with NF-AT is over 33 µM; in the test with human T-cells, 18 µM; against FKBP it was over 5 µM.
The corresponding values for `COc1cc(C(=O)CN2CCC[C@H]2C(=O)NCC23CC4CC(CC(C4)C2)C3)cc(OC)c1OC` [Example 139, L-Proline, 1-[2-(3,4,5-Trimethoxyphenyl)-2-Oxoethyl] Adamant-1-ylmethylamide Hydrochloride] are over 33 µM, 4 µM and over 5 µM.
With `COc1cc(C(=O)CN2CCC[C@H]2C(=O)N[C@H](C)c2cccc3ccccc23)cc(OC)c1OC` [Example 140, L-Proline, 1-[2-(3,4,5-Trimethoxyphenyl)-2-Oxoethyl] 1-(R)-(1-naphthyl)ethylamide Hydrochloride], the IC50 with NF-AT was over 33 µM; in the test on human T-cells, 10 µM; on FKBP, over 5 µM.

The values are drawn from patent publication US5686424A, “2-oxoethyl derivatives as immunosuppressants” (Miles Inc., priority 1995, dated 1997).
